# Measured values taken from PMC7780349 (Cell, 2020).
# Like-named read-outs stand apart in the source and are kept apart here.
# Experiments:
# [1] = tested on: E. coli lptD4213; experiment: Membrane potential and permeability assay; settings: E. coli lptD4213, 15 min treatment
# [2] = tested on: E. coli lptD4213; experiment: Minimum inhibitory concentration assay; settings: for MIC: concentration printed as 1× MIC
# [3] = tested on: A. baumannii AB17978; experiment: Minimum inhibitory concentration assay
# [4] = tested on: B. subtilis 168; experiment: Minimum inhibitory concentration assay; type: cell-based
# [5] = tested on: S. aureus MRSA USA300; experiment: Minimum inhibitory concentration assay
# [6] = target: E. coli dihydrofolate reductase (FolA) (Escherichia coli, UniProt P0ABQ4); experiment: Dihydrofolate reductase activity assay; type: biochemical
# Sequence of E. coli dihydrofolate reductase (FolA) (P0ABQ4 whole entry): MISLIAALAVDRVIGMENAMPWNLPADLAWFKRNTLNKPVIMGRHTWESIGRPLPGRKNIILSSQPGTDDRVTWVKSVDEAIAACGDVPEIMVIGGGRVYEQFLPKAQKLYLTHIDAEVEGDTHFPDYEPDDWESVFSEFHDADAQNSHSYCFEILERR
# [7] = tested on: B. subtilis dfrA and folC CRISPRi knockdown mutants; type: cell-based; settings: growth (OD600) after 14 h relative to DMSO
# [8] = Mouse liver microsomal stability; type: in vitro ADME; settings: 2 μM, 0.5 mg/mL microsomes, NADPH and UDPGA, 1 hour; compared to verapamil
# [9] = Maximal tolerated dose in mice; type: in vivo; settings: intravenously
# [10] = tested on: N. gonorrhoeae; experiment: Minimum inhibitory concentration assay; settings: bacterial culture
# [11] = tested on: N. gonorrhoeae ATCC 700825; experiment: Neisseria gonorrhea vaginal infection model; type: in vivo, BALB/c mice; settings: 10 mg/kg i.v. at 2 and 14 h post-infection, CFUs at 26 h; p < 0.05 vs vehicle
# [12] = tested on: PBMC; experiment: Mammalian cell cytotoxicity; type: cell-based; settings: 72 hours
# [13] = tested on: mammalian cells (HEK293, HK-2, HLF, PBMC)
# [14] = tested on: E. coli NCM3722; experiment: Minimum inhibitory concentration assay; type: cell-based; settings: Escherichia coli
# [15] = tested on: E. cloacae; experiment: Minimum inhibitory concentration assay
# [16] = tested on: A. baumannii AB17978; experiment: Serial passaging assay to evolve resistance; type: cell-based, Acinetobacter baumannii
# [17] = tested on: B. subtilis; experiment: Isolation of resistant mutants by plating; type: cell-based; settings: ~10^8 CFUs
# [18] = animals; ref Gobbetti et al., 2012; Strande et al., 2007; cited from earlier work
# [19] = tested on: HEK293; type: cell-based
# [20] = tested on: MRSA USA300; experiment: Isolation of resistant mutants by plating on drug agar; type: cell-based, Staphylococcus aureus; settings: ~10^8 CFU on agar with 25 μg/mL SCH-79797 (4X MIC)
# [21] = tested on: E. coli lptD4213; experiment: Colony forming units assay; type: cell-based; settings: E. coli lptD4213, 3-h treatment, 2× MIC
# [22] = target: dihydrofolate reductase (FolA) (Escherichia coli, UniProt P0ABQ4); experiment: Thermal proteome profiling; type: binding; settings: E. coli lptD4213 intact cells and cell lysates
# Sequence of dihydrofolate reductase (FolA) (P0ABQ4 whole entry): as above
# [23] = tested on: A. baumannii AB17978; experiment: Galleria mellonella killing assay; type: in vivo; settings: lethal dose of A. baumannii AB17978; 67 μg/larva; p < 0.001
# [24] = tested on: S. aureus MRSA USA300 persister cells; experiment: S. aureus MRSA persister cell assay; type: cell-based, Staphylococcus aureus; settings: 2 h treatment
# [25] = tested on: G. mellonella; experiment: Galleria mellonella host toxicity; type: in vivo; settings: injection at four times the MIC toward A. baumannii
# [26] = tested on: S. aureus MRSA USA300; experiment: Serial passaging assay to evolve resistance; type: cell-based, Staphylococcus aureus; settings: S. aureus MRSA USA300, 25 days, sub-lethal concentrations
# [27] = tested on: P. aeruginosa; experiment: Minimum inhibitory concentration assay
# [28] = tested on: HLF; type: cell-based
# [29] = tested on: HK-2; type: cell-based
# [30] = tested on: folate metabolite pools in E. coli NCM3722; experiment: Metabolomics of folate metabolite pools; type: cell-based; settings: 13.9 μg/mL (1× MIC), 15 min
# [31] = tested on: E. coli lptD4213 ΔthyA; experiment: Growth of wild-type and ΔthyA cells with thymine; type: cell-based; settings: excess thymine in the medium
compound,measurement,setting,value
N#CC(C#N)=NNc1cccc(Cl)c1 [CCCP],membrane potential and permeability (DiOC2(3) and TO-PRO-3 staining),[1],expected shifts in both DiOC2(3) and TO-PRO-3 staining
Nc1nc(N)c2c(ccc3[nH]ccc32)n1 [IRS-10],potency compared to the parent molecule SCH-79797,[2],increased the potency
same,MIC,[2],0.4 µg/mL
same,potency compared to the parent molecule SCH-79797,[3],decreased the potency
same,potency compared to the parent molecule SCH-79797,[4]; B. subtilis 168,decreased the potency
same,potency compared to the parent molecule SCH-79797,[5]; MRSA USA300,decreased the potency
same,IC50,"[6]; read-out: IC50 against FolA, 60 μM NADPH and 100 μM DHF, Hill fit",0.065 ± 0.019 µM
same,sensitivity of dfrA and folC CRISPRi knockdowns,[7],maintains the ability to inhibit folate metabolism
same,membrane potential and permeability (DiOC2(3) and TO-PRO-3 staining),[1],does not disrupt membrane polarity or permeability
Nc1nc(N)c2c(ccc3c2ccn3Cc2ccc(-c3ccccc3)cc2)n1 [IRS-16],MIC,[2],0.02 µg/mL
same,stability in mouse liver microsomes,[8],extremely stable
same,maximal tolerated dose (MTD),[9],15 mg/kg
same,adverse effects,"male CD-1 mice, single i.v. dose 15 mg/kg",no adverse effects
same,time at concentrations above the N. gonorrhoeae MIC,"mice, 15 mg/kg i.v., MIC 0.03 μg/mL",~48 h
same,half-life,"mouse, in vivo, iv, 15 mg/kg",15.8 h
same,MIC,[10],0.03 µg/mL
same,vaginal load of N. gonorrhoeae (CFU),[11],significantly reduced the vaginal load
same,sensitivity of dfrA and folC CRISPRi knockdowns,[7],hypersensitive
same,membrane potential and permeability (DiOC2(3) and TO-PRO-3 staining),[1],disrupted membrane permeability and polarity
same,MIC against PBMC,[12],greater than the maximal drug concentrations tested
same,increase of therapeutic window relative to SCH-79797,[13],> 100 fold
"CC(C)c1ccc(Cn2ccc3c4c(N)nc(NC5CC5)nc4ccc32)cc1 [SCH-79797, N3-cyclopropyl-7-[[4-(1-methylethyl)phenyl]methyl]-7H-pyrrolo[3,2-f]quinazoline-1,3-diamine]",MIC,[14],13.9 µg/mL
same,MIC,[15],greater the maximal drug concentrations tested
same,resistance on serial passaging,[16],resistance remained constant
same,isolation of resistant mutants on plating,[17],unable to isolate SCH-79797-resistant mutants
same,MIC,"[4]; Bacillus subtilis, 168",3.1 µg/mL
same,safely tolerated dose,[18],at least 5 mg/kg
same,MIC,"[5]; Staphylococcus aureus, MRSA|USA300",6.3 µg/mL
same,growth inhibition of mammalian cells relative to antibacterial dose,[19],at doses comparable to the doses needed to kill bacteria
same,isolation of resistant mutants on plating,[20],unable to isolate stable SCH-79797-resistant mutants
same,bactericidal activity (CFU),[21],potent and rapid bactericidal activity
same,thermal stability of dihydrofolate reductase (FolA),[22],significantly shifted the thermal stability
same,survival of infected larvae,[23],significantly prolonged the survival
same,viability of persister cells (CFU),[24],robustly killed these persister cells
same,IC50,[6],8.6 ± 3 µM
same,host toxicity,[25],did not result in higher host toxicity than the solvent-only control
same,sensitivity of dfrA and folC CRISPRi knockdowns,[7],sensitized
same,resistance on serial passaging,[26],no SCH-79797-resistant mutants emerged
same,membrane potential and permeability (DiOC2(3) and TO-PRO-3 staining),[1],significant defects in both membrane polarization and permeability
same,MIC,[27],greater the maximal drug concentrations tested
same,growth inhibition of mammalian cells relative to antibacterial dose,[28],at doses comparable to the doses needed to kill bacteria
same,growth inhibition of mammalian cells relative to antibacterial dose,[29],at doses comparable to the doses needed to kill bacteria
same,"rise of 7,8-dihydrofolate (DHF) level compared to untreated cells",[30],~ 10 fold
same,sensitivity of ΔthyA versus wild-type cells,[31],no change in sensitivity
CC(C)c1ccccc1 [isopropylbenzene],sensitivity of dfrA and folC CRISPRi knockdowns,[7],no effect
same,membrane potential and permeability (DiOC2(3) and TO-PRO-3 staining),[1],disrupts both membrane polarity and permeability
CO[C@@H]1[C@@H](OC(N)=O)[C@@H](O)[C@H](Oc2ccc3c(O)c(NC(=O)c4ccc(O)c(CC=C(C)C)c4)c(=O)oc3c2C)OC1(C)C [novobiocin],resistance on serial passaging,[26],resistance gradually increased
same,membrane potential and permeability (DiOC2(3) and TO-PRO-3 staining),[1],do not shift DiOC2(3) or TO-PRO-3 staining
CO[C@H]1/C=C/O[C@@]2(C)Oc3c(C)c(O)c4c(O)c(c(/C=N/N5CCN(C)CC5)c(O)c4c3C2=O)NC(=O)/C(C)=C\C=C\[C@H](C)[C@H](O)[C@@H](C)[C@@H](O)[C@@H](C)[C@H](OC(C)=O)[C@@H]1C [rifampicin],membrane potential and permeability (DiOC2(3) and TO-PRO-3 staining),[1],do not shift DiOC2(3) or TO-PRO-3 staining
COc1cc(Cc2cnc(N)nc2N)cc(OC)c1OC [trimethoprim],MIC,[14],0.15 µg/mL
same,sensitivity of dfrA and folC CRISPRi knockdowns,[7],hypersensitive
same,membrane potential and permeability (DiOC2(3) and TO-PRO-3 staining),[1],no significant changes in DiOC2(3) and TO-PRO-3 staining
same,sensitivity of ΔthyA versus wild-type cells,[31],led to trimethoprim resistance
daptomycin,viability of persister cells (CFU),[24],did not reduce the number of CFUs
nisin,resistance on serial passaging,[26],resistance gradually increased
same,membrane potential and permeability (DiOC2(3) and TO-PRO-3 staining),[1],expected shifts in both DiOC2(3) and TO-PRO-3 staining
polymyxin B,membrane potential and permeability (DiOC2(3) and TO-PRO-3 staining),[1],expected shifts in both DiOC2(3) and TO-PRO-3 staining
